For one assay, the system named is advanced solid tumors. The following applies: cited from earlier work.
The target of a further assay is Wee1 (h) (Homo sapiens, UniProt P30291). In words: Wee1(h) kinase activity experiment ([γ-33P]-ATP, filtermat, scintillation counting). The format is biochemical. The following applies: 10 μM ATP, 40 minutes at room temperature; read-out: IC50, inhibitory effect on Wee1 kinase activity. Here is the method: Determination of the Inhibitory Effect of Compounds on Wee1 Kinase Using Wee1(h) Kinase Activity Experiment
Wee1 (h) is incubated with 20 mM Tris/HCl pH 8.5, 0.2 mM EDTA, 500 μM […], 10 mM MgAcetate and 10 μM [γ-^33P]-ATP. Then 50 times the concentration of the testing compound in 100% DMSO was added until the final concentration was 10 μM, then mixed, and diluted to 10 concentrations in successive series according to the ratio of 1:3 and 1:10 respectively (the last concentration was DMSO negative control): 10 μM, 3 μM, 1 μM, 0.3 μM, 0.1 μM, 0.03 μM, 0.01 μM, 0.003 μM, 0.001 μM, 0 μM. The reaction is initiated by the addition of the Mg/ATP mix. After incubation for 40 minutes at room temperature, the reaction is stopped by the addition of phosphoric acid to a concentration of 0.5%. 10 μL of the reaction liquor is then spotted onto a P30 filtermat and washed four times in 0.425% phosphoric acid and once in methanol prior to drying and scintillation counting. Each compound sample is duplicated in duplicate. The negative control was the components except of Wee1 enzyme, and the positive control was the components of adding 30% phosphoric acid to terminate the reaction. Table 1 summarizes the inhibitory effects of compounds on Wee1 kinase activity (IC50).

The test system of the next assay is NCI-H1299 cell. Put plainly: Inhibition of proliferation of NCI-H1299 cell, CCK-8 method. The format is cell-based. The following applies: Homo sapiens, NCI-H1299, 72 h; CCK-8, 3 days; read-out: IC50, inhibitory effect on the proliferation of NCI-H1299 cell. Here is the method: Determination of the Inhibitory Effect of Compounds on the Proliferation of NCI-H1299 Cell Using CCK-8 Method
The cells were digested by trypsinase and centrifuged at 800 rpm for 5 minutes, the supernatant was discarded, and the residual was resuspended with fresh medium and counted. The cells were seeded into 96-well cell culture plate with a density of 1000 cells per well and incubated overnight in a 5% CO2 incubator at 37° C. The stock solutions of test compounds were serially diluted to 8 concentrations by DMSO at the ratios of 1:3 and 1:10, respectively. The final concentration of compound was: 10 μM, 3.3 μM, 1 μM, 0.33 μM, 0.1 μM, 0.033 μM, 0.01 μM and 0 μM. 5 μL diluent of each concentration was added to 120 μL of medium (25 times diluted) and mixed by shaking. The overnight cell plates were taken and the culture medium was removed, 195 μL of fresh medium was added to each well, and 5 μL of diluted medium containing the corresponding concentration of the test compound was added respectively (the final concentration of DMSO is 1‰), and the culture plate was then placed in a 5% CO2 incubator at 37° C. for 3 days. After removing the original solution, 90 μL of fresh serum-free 1640 medium was added, then 10 μL of CCK-8 reagent was added to each well and continued incubation for 2 hours. The 96-well plates were placed in a multi-function reader to read the absorbance at the wavelength of 450/650 nm. Cell viability (%)=(ODcompound−ODbackground)/(ODDMSO−ODbackground)×100. GraphPad Prism 5.0 was used to analyze the data. The inhibitory activity of compounds on cell proliferation was plotted based on cell viability and the logarithm of compound concentration. The IC50 value was fitted by a sigmoidal dose response curve equation Y=100/(1+10^(Log C−Log IC50)), wherein C was the concentration of compound.
Table 3 summarizes the inhibitory effect data (IC50) of compounds on the proliferation of NCI-H1299 cell.

The next assay has as its system LoVo cell. In words: Inhibition of proliferation of LoVo cell, CCK-8 method. The format is cell-based. As to conditions: Homo sapiens, 72 h, CCK-8, 3 days, read-out: IC50, inhibitory effect on the proliferation of LoVo cell. Here is the method:
Determination of the Inhibitory Effect of Compounds on the Proliferation of LoVo Cell Using CCK-8 Method
The cells were digested by trypsinase and centrifuged at 800 rpm for 5 minutes, the supernatant was discarded, and the residual was resuspended with fresh medium and counted. The cells were seeded into 96-well cell culture plate with a density of 6000 cells per well and incubated overnight in a 5% C02 incubator at 37° C. The stock solutions of test compounds were serially diluted to 8 concentrations by DMSO at the ratios of 1:3 and 1:10, respectively. The final concentration of compound was: 10 μM, 3.3 μM, 1 μM, 0.33 μM, 0.1 μM, 0.033 μM, 0.01 μM and 0 μM. 5 μL diluent of each concentration was added to 120 μL of medium (25 times diluted) and mixed by shaking. The overnight cell plates were taken and the culture medium was removed, 195 μL of fresh medium was added to each well, and 5 μL of diluted medium containing the corresponding concentration of the test compound was added respectively (the final concentration of DMSO is 1‰), and the culture plate was then placed in a 5% CO2 incubator at 37° C. for 3 days. After removing the original solution, 90 μL of fresh serum-free 1640 medium was added, then 10 μL of CCK-8 reagent was added to each well and continued incubation for 2 hours. The 96-well plates were placed in a multi-function reader to read the absorbance at the wavelength of 450/650 nm. Cell viability (%)=(ODcompound−ODbackground)/(ODDMSO−ODbackground)×100. GraphPad Prism 5.0 was used to analyze the data. The inhibitory activity of compounds on cell proliferation was plotted based on cell viability and the logarithm of compound concentration. The IC50 value was fitted by a sigmoidal dose response curve equation Y=100/(1+10^(Log C−Log IC50)), wherein C was the concentration of compound.
Table 2 summarizes the inhibitory effect data (IC50) of compounds on the proliferation of LoVo cell

Setting [1] is: 176 evaluable patients, AZD1775 alone or in combination with chemotherapy.

Data on nine compounds can be found in patent publication US20240010655A1, “DIHYDROIMIDAZO PYRIMIDO PYRIMIDINONE COMPOUND” (priority 2019, published 2024).

Wee1 (h), sequence (P30291 whole entry): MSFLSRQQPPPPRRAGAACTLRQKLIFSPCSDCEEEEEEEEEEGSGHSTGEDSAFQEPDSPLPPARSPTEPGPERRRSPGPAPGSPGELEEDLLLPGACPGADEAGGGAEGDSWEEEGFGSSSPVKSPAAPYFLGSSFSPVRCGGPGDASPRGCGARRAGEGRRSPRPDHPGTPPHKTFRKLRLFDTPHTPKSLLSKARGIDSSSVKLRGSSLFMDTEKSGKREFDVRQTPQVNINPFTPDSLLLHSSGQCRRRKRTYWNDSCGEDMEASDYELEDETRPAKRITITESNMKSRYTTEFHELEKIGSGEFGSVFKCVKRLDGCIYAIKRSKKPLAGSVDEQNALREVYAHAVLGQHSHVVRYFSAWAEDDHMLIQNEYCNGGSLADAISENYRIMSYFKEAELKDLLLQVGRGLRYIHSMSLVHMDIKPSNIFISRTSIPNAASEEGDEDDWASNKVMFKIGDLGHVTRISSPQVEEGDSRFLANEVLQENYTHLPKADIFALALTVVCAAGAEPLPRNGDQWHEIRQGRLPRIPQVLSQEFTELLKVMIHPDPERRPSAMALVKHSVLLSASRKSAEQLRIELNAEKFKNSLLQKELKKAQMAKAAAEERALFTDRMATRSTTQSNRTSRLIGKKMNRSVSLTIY

As to `C=CCn1c(=O)c2cnc(Nc3ccc(N4CCN(C)CC4)cc3)nc2n1-c1cccc(C(C)(C)O)n1` [AZD1775], in the assay on advanced solid tumors (setting [1]), the “patients with partial response” value is 10% and the “patients with stable disease as the best response” value is given as 53%. For the same compound, the “response rate in patients with TP53 mutation” value with advanced solid tumors (TP53 mutation (n=19)) is 21%. Moreover, the “response rate in TP53 wild-type patients” value in the assay with advanced solid tumors (TP53 wild-type (n=33)) is listed as 12%.
With `Cc1cc(Nc2ncc3c(n2)N2CCN=C2N(c2c(Cl)cccc2Cl)C3=O)ccc1N1C[C@@H](C)N[C@@H](C)C1` [Example 1, 6-(2,6-dichlorophenyl)-2-((4-((3S,5R)-3,5-dimethylpiperazin-1-yl)-3-methylphenyl)amino)-8,9-dihydroimidazo[1,2-a]pyrimido[5,4-e]pyrimidin-5(6H)-one], the IC50 on Wee1 (h) came to 37 nM; with NCI-H1299 cell, 71 nM; with LoVo cell, 126 nM.
For `[2H]C([2H])([2H])N1[C@H](C)CN(c2ccc(Nc3ncc4c(n3)N3CCN=C3N(c3c(Cl)cccc3Cl)C4=O)cc2C)C[C@@H]1C` [Example 2, 6-(2,6-dichlorophenyl)-2-((4-((3S,5R)-3,5-dimethyl-4-(methyl-d3)piperazin-1-yl)-3-methylphenyl)amino)-8,9-dihydroimidazo[1,2-a]pyrimido[5,4-e]pyrimidin-5(6H)-one] the same measures were 21 nM, 123 nM and 158 nM.
For the compound `C[C@@H]1CN(c2ccc(Nc3ncc4c(n3)N3CCN=C3N(c3c(Cl)cccc3Cl)C4=O)cc2Br)C[C@H](C)N1C` [Example 3, 2-((3-bromo-4-((3S,5R)-3,4,5-trimethylpiperazin-1-yl)phenyl)amino)-6-(2,6-dichlorophenyl)-8,9-dihydroimidazo[1,2-a]pyrimido[5,4-e]pyrimidin-5(6H)-one], the IC50 with NCI-H1299 cell came to 382 nM; in the assay on LoVo cell, 219 nM.
For `Cc1cc(Nc2ncc3c(n2)N2CCN=C2N(c2c(Cl)cccc2Cl)C3=O)cc(F)c1N1C[C@@H](C)N(C)[C@@H](C)C1` [Example 5, 6-(2,6-dichlorophenyl)-2-((3-fluoro-5-methyl-4-((3S,5R)-3,4,5-trimethylpiperazin-1-yl)phenyl)amino)-8,9-dihydroimidazo[1,2-a]pyrimido[5,4-e]pyrimidin-5(6H)-one] the same measures were 182 nM and 124 nM.
As for `Cc1cc(Nc2ncc3c(n2)N2CCN=C2N(c2c(Cl)cccc2Cl)C3=O)ccc1N1C[C@H](C)N(C)[C@@H](C)C1` [Example 8, 6-(2,6-dichlorophenyl)-2-((3-methyl-4-((3S,5S)-3,4,5-trimethylpiperazin-1-yl)phenyl)amino)-8,9-dihydroimidazo[1,2-a]pyrimido[5,4-e]pyrimidin-5(6H)-one], the IC50 came out at 30 nM at Wee1 (h), 214 nM with NCI-H1299 cell and 163 nM in the assay on LoVo cell.
For `Cc1cc(Nc2ncc3c(n2)N2CCN=C2N(c2c(Cl)cccc2Cl)C3=O)ccc1C1CCNCC1` [Example 9, 6-(2,6-dichlorophenyl)-2-((3-methyl-4-(piperidin-4-yl)phenyl)amino)-8,9-dihydroimidazo[1,2-a]pyrimido[5,4-e]pyrimidin-5(6H)-one], the figures for the IC50 on Wee1 (h), in the assay with NCI-H1299 cell and in the assay with LoVo cell were 23 nM, 940 nM and 533 nM, respectively.
Take `Cc1cc(Nc2ncc3c(n2)N2CCN=C2N(c2c(Cl)cccc2Cl)C3=O)ccc1C1CCN(C)CC1` [Example 12, 6-(2,6-dichlorophenyl)-2-((3-methyl-4-(1-methylpiperidin-4-yl)phenyl)amino)-8,9-dihydroimidazo[1,2-a]pyrimido[5,4-e]pyrimidin-5(6H)-one]: the IC50 on Wee1 (h) turned out to be 23 nM; in the assay on NCI-H1299 cell, 79 nM; in the assay on LoVo cell it was 78 nM.
For `Cc1cc(Nc2ncc3c(n2)N2CCN=C2N(c2c(Cl)cccc2Cl)C3=O)cc(F)c1C1CCN(C)CC1` [Example 13, 6-(2,6-dichlorophenyl)-2-((3-fluoro-5-methyl-4-(1-methylpiperidin-4-yl)phenyl)amino)-8,9-dihydroimidazo[1,2-a]pyrimido[5,4-e]pyrimidin-5(6H)-one] the same measures were 26 nM, 85 nM and 73 nM.
